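In this assay, cells in 96-well plates receive the compound at five concentrations for 48 hours. Endpoints are linearly interpolated between the surrounding concentrations. The concentration for full growth arrest is given as TGI.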
Key:
Assay in all cases: NCI anticancer screen, dose series, 48 h
786-0 renal = tested on: 786-0 renal
EKVX NSCLC = tested on: EKVX NSCLC
HCT-116 colon = tested on: HCT-116 colon
HOP-62 NSCLC = tested on: HOP-62 NSCLC
K-562 leukemia = tested on: K-562 leukemia
KM12 colon = tested on: KM12 colon
M14 melanoma = tested on: M14 melanoma
NCI-H226 lung = tested on: NCI-H226 lung
NCI-H23 lung = tested on: NCI-H23 lung
NCI-H522 lung = tested on: NCI-H522 lung
OVCAR-4 ovarian = tested on: OVCAR-4 ovarian
SK-MEL-28 melanoma = tested on: SK-MEL-28 melanoma
SK-OV-3 ovarian = tested on: SK-OV-3 ovarian
UACC-62 melanoma = tested on: UACC-62 melanoma
DU-145 prostate = tested on: DU-145 prostate
MDA-MB-231 breast = tested on: MDA-MB-231 breast
MDA-MB-435 = tested on: MDA-MB-435
HS 578T breast = tested on: HS 578T breast
T-47D breast = tested on: T-47D breast

Row | Structure (SMILES) | TGI (786-0 renal) [µM] | TGI (EKVX NSCLC) [µM] | TGI (HCT-116 colon) [µM] | TGI (HOP-62 NSCLC) [µM] | TGI (K-562 leukemia) [µM] | TGI (KM12 colon) [µM] | TGI (M14 melanoma) [µM] | TGI (NCI-H226 lung) [µM] | TGI (NCI-H23 lung) [µM] | TGI (NCI-H522 lung) [µM] | TGI (OVCAR-4 ovarian) [µM] | TGI (SK-MEL-28 melanoma) [µM] | TGI (SK-OV-3 ovarian) [µM] | TGI (UACC-62 melanoma) [µM] | TGI (DU-145 prostate) [µM] | TGI (MDA-MB-231 breast) [µM] | TGI (MDA-MB-435) [µM] | TGI (HS 578T breast) [µM] | TGI (T-47D breast) [µM]
1 | C/C(CC(=O)NC1=CC=C(NC(=O)C/C(C)=N\Nc2ccccc2)CC1)=N/Nc1ccccc1 | > 100 | > 100 | > 100 | > 100 | > 100 | > 100 | > 100 | > 100 | > 100 | > 100 | > 100 | > 100 | > 100 | > 100 | – | – | – | – | –
2 | Brc1ccc2c(c1)C1C(CO2)C(c2ccccc2)=NN1c1ccccc1 (stereo unspecified) | > 100 | > 100 | > 100 | > 100 | > 100 | > 100 | – | – | > 100 | – | – | > 100 | > 100 | – | – | – | – | – | –
3 | CC1(C)CCC[C@]2(C)[C@@H]1CC[C@@]13O[C@@H]1C1=C(CO)C(=O)OC1=C[C@@H]23 | 27.3 | 29.2 | 12.8 | 49.3 | > 100 | 24.8 | 33.9 | 30.2 | 46.5 | 24.7 | 55.9 | 31.7 | 46.5 | 40.7 | 39.7 | 81.9 | 61.5 | – | –
4 | N#CC(C(=N/NC(N)=S)/C(=N/NC(N)=S)C(C#N)c1ccc(Cl)cc1)c1ccc(Cl)cc1 (stereo unspecified) | > 100 | > 100 | > 100 | > 100 | > 100 | > 100 | > 100 | > 100 | > 100 | > 100 | > 100 | > 100 | > 100 | > 100 | – | – | – | – | –
5 | COc1ccc(NC(=O)CC(=O)N/N=C/c2ccc(N(CCC#N)S(=O)(=O)c3ccccc3)cc2)cc1 | > 100 | > 100 | > 100 | > 100 | > 100 | > 100 | > 100 | > 100 | > 100 | > 100 | > 100 | > 100 | > 100 | > 100 | – | – | – | – | –
6 | CN(NC(=O)/C(=C\c1ccco1)NC(=O)c1ccccc1)c1cn[nH]c(=O)c1Cl | > 100 | > 100 | > 100 | > 100 | > 100 | > 100 | > 100 | > 100 | > 100 | 89.3 | > 100 | > 100 | > 100 | > 100 | > 100 | > 100 | > 100 | > 100 | –
7 | C[C@@H]1OC(=O)C[C@H]2CC(=O)N(CCC3CN(S(=O)(=O)C(F)(F)F)c4ccccc43)C[C@@H]21 (stereo partly specified) | > 100 | > 100 | > 100 | > 100 | > 100 | > 100 | > 100 | – | > 100 | > 100 | > 100 | > 100 | > 100 | > 100 | > 100 | > 100 | > 100 | > 100 | –
8 | CCOC(=O)c1[nH]c(CN(C)Cc2[nH]c(C(=O)OCC)c(C)c2C(=O)OCc2ccccc2)c(C(=O)OCc2ccccc2)c1C | 36.2 | 42.5 | 38 | 89.7 | > 100 | 54.9 | 29.1 | 32.7 | 42 | 36.7 | 32.1 | > 100 | – | 85.3 | – | – | – | – | –
9 | CSc1nc2c(c(O)c(C)c(=O)n2C2OCC(OC(C)=O)C(OC(C)=O)C2OC(C)=O)c(=O)n1C (stereo unspecified) | > 100 | – | > 100 | > 100 | > 100 | > 100 | > 100 | > 100 | > 100 | > 100 | > 100 | > 100 | > 100 | > 100 | – | – | – | – | –
10 | COc1cc(C)c(C)c(OC(=O)c2c(C)c(C)c(OC)c(C)c2OC)c1C | 53.4 | 98.3 | 39 | > 100 | 44.7 | 50.9 | 33.9 | 72.1 | 52.9 | 4.71 | > 100 | > 100 | 57.2 | > 100 | – | – | – | – | –
11 | CCC1(N=[N+]=[N-])C(=O)c2ccccc2N(c2ccccc2)C1=O (stereo unspecified) | > 100 | > 100 | > 100 | > 100 | > 100 | > 100 | > 100 | – | > 100 | > 100 | > 100 | > 100 | > 100 | > 100 | – | – | – | – | –
12 | CC1CN=C(NS(=O)(=O)c2cc(C(=O)Nc3ccc(F)cc3)c(Cl)cc2S)NN1 (stereo unspecified) | > 100 | > 100 | > 100 | > 100 | > 100 | > 100 | > 100 | > 100 | > 100 | 94.2 | > 100 | > 100 | > 100 | > 100 | > 100 | > 100 | > 100 | – | –
13 | Cn1c2ccccc2c2nc3ccccc3c(Cl)c21 | > 100 | – | > 100 | > 100 | > 100 | > 100 | > 100 | > 100 | > 100 | > 100 | > 100 | > 100 | > 100 | > 100 | > 100 | > 100 | > 100 | > 100 | –
14 | CCCCCCCCCCCCn1[nH]c(C)c(C(=S)SCCCCCCCC)c1=O | > 100 | > 100 | > 100 | > 100 | > 100 | > 100 | > 100 | > 94.8 | > 100 | > 100 | > 100 | > 100 | > 100 | 64.6 | – | – | – | – | –
15 | CCCCNC(=O)CCN(C(=O)O)S(=O)(=O)c1ccc(NC(=O)c2ccccc2)cc1 | 29.7 | > 100 | > 100 | > 100 | > 100 | > 100 | > 100 | > 100 | > 100 | > 100 | > 100 | > 100 | > 100 | > 100 | – | – | – | – | –
16 | Cn1nc2ccc3nccc(N(CCO)CCO)c3c2n1 | > 100 | > 100 | > 100 | > 100 | > 100 | > 100 | > 100 | > 100 | > 100 | > 100 | – | > 100 | > 100 | > 100 | – | – | – | – | –
17 | COC(=O)NC(=O)c1cn(CCCOC(=O)CCCCCCCCC(=O)OCCCn2cc(C(=O)NC(=O)OC)c(=O)[nH]c2=O)c(=O)[nH]c1=O | > 100 | > 100 | > 100 | 78.5 | > 100 | > 100 | > 100 | > 100 | > 100 | – | > 100 | > 100 | – | > 100 | – | – | – | – | –
18 | O=C(Cn1c2ccc(Br)cc2c2nc3ccccc3nc21)N/N=C/c1ccccc1 | 94.8 | > 100 | – | 97.9 | > 100 | > 100 | > 100 | > 100 | > 100 | – | – | > 100 | > 100 | > 100 | > 100 | > 100 | > 100 | – | > 100
19 | Cc1cc(N(CCC#N)CCC#N)ccc1N=Nc1cccc(Cl)c1 | > 100 | > 100 | > 100 | > 100 | > 100 | > 100 | > 100 | > 100 | > 100 | > 100 | > 100 | > 100 | > 100 | > 100 | – | – | – | – | –
20 | Cc1nc(Nc2ccccc2)sc1C(=O)NNc1ccc([N+](=O)[O-])cc1[N+](=O)[O-] | > 100 | 71.2 | > 100 | > 100 | 60.1 | > 100 | > 100 | > 100 | 44.2 | 49.3 | > 100 | > 100 | > 100 | > 100 | – | – | – | – | –
21 | CCc1cccc(CC)c1NC(=O)C1=C(C)NC(C)=C(C(=O)Nc2c(CC)cccc2CC)C1c1ccc2c(c1)OCO2 | 29.9 | 38.3 | 35.7 | 37.2 | 38.2 | 36.5 | 31.1 | 28.6 | 32.8 | 27.2 | 42.9 | 35 | 60.6 | 25.6 | – | – | – | – | –
22 | CCN(CC)Cc1cc(Nc2c3ccccc3nc3c4ccccc4n(C)c23)ccc1O | 14 | 29.7 | 19.5 | 24.3 | 7.65 | 23.9 | 3.68 | 57.4 | 30.3 | 6.39 | 27.4 | 15.3 | 31.6 | 17.2 | – | – | – | – | –
23 | CC(=O)NC(CCCNC(=O)NCCCl)C(=O)NCc1ccccc1 (stereo unspecified) | > 100 | > 100 | > 100 | > 100 | > 100 | > 100 | > 100 | > 100 | > 100 | > 100 | > 100 | > 100 | – | > 100 | – | – | – | – | –
24 | CC1C=C[C@H](Sc2ccccc2)CC[C@@]1(C)O (stereo partly specified) | > 100 | > 100 | > 100 | > 100 | > 100 | – | > 100 | > 100 | > 100 | – | – | > 100 | > 100 | > 100 | – | – | – | – | –
25 | COc1ccc(N2C(=O)[C@@H]3[C@H](C2=O)c2[nH]c4ccccc4c2C2CCC(C(C)(C)C)C[C@@H]23)cc1 (stereo partly specified) | 31.1 | 81.4 | > 100 | 32.9 | > 31.6 | > 100 | > 100 | 46.4 | 66.4 | 62.7 | – | > 100 | 44.2 | 49.4 | – | – | – | – | –
26 | CCc1cccc(C(C)CC)c1NC(=O)C(=O)C(CC(=O)Nc1ccc(Cl)c(Cl)c1)C(=O)OC (stereo unspecified) | > 100 | > 100 | > 100 | > 100 | > 100 | > 100 | > 100 | > 100 | > 100 | > 100 | > 100 | > 100 | > 100 | 18.9 | – | – | – | – | –
27 | CC(C)(Oc1ccc2c(=O)cc(-c3ccccc3)oc2c1)C(=O)Nc1c(Cl)cccc1Cl | > 100 | > 100 | > 100 | > 100 | > 100 | > 100 | > 100 | – | > 100 | > 100 | – | > 100 | > 100 | > 100 | – | – | – | – | –
28 | COC(=O)c1ccccc1NC(=O)C(=O)CC(=O)CC(c1ccccc1)c1c(O)c2ccccc2oc1=O (stereo unspecified) | > 100 | > 100 | > 100 | > 100 | – | > 100 | > 100 | – | > 100 | > 100 | > 100 | > 100 | > 100 | > 100 | – | – | – | – | –
29 | COC(=O)C1N=CSCC1(C)O (stereo unspecified) | > 100 | > 100 | > 100 | > 100 | > 100 | > 100 | > 100 | > 100 | > 100 | – | > 100 | > 100 | > 100 | > 100 | – | – | – | – | –
30 | CCCCCCCCCCCC(=O)c1c(O)cccc1O | 32.8 | 33.6 | 33.1 | 31.5 | > 100 | 30 | 33.3 | 34.7 | 32.2 | 33.2 | 37.6 | 32 | 85.8 | 34.3 | – | – | – | – | –

Reference: PubChem BioAssay (NCI)
